Data taken from PubChem BioAssay AID1963962 (Molecular Pharmacology Branch, DTP, NCI, 2024).

Test system: 967376-340-R-J2-PDC multicell spheroid viability
Assay: Anticancer human tumor 967376-340-R-J2-PDC patient-derived colon adenocarcinoma cell line growth inhibition [PI3K]
Conditions: for IC50: curve of first compound; for viability, T/C: stronger effect = lower value
Excerpt: Combinatorial screen of targeted agents with the PI3K inhibitors inavolisib, alpelisib, duvelisib, and copanlisib in multi-cell type tumor spheroids
A high-throughput screen of multi-cell type tumor spheroids was designed to identify active combinations of targeted small molecules and PI3K pathway inhibitors. Complex spheroids include a stromal component modeled by human endothelial cells (HUVEC) and fibroblasts modeled by human mesenchymal stem cells (MSCs). The concentration ranges selected for each drug and investigational agent were based upon clinically achievable concentrations if the clinical Cmax of the agent was known.
Compounds. The drugs and investigational agents: inavolisib (NSC800729), alpelisib (NSC765974), duvelisib (NSC772469), copanlisib (NSC816437), ipatasertib (NSC767898), afuresertib (NSC778305), talazoparib (NSC767125), sapanisertib (NSC764658), selumetinib (NSC741078), tovorafenib (DAY101, NSC766906), vemurafenib (NSC761431), ravoxertinib (NSC781343), sotorasib (NSC818433), MRTX1133 (NSC 836407), abemaciclib (NSC 768073), palbociclib (NSC758247), venetoclax (NSC 766270), SY5609 (NSC837396), enzalutamide (NSC755605), and darolutamide (NSC825331), were obtained from the National Cancer Institute (NCI) Developmental Therapeutics Program Chemical Repository. The FDA-approved anticancer drug set is available from the NCI Developmental Therapeutics Program. […] The stock solutions were prepared in dimethyl sulfoxide (DMSO, Sigma-Aldrich, St. Louis, MO, cat. D2650) at 800-fold the tested concentration and stored at -70 degrees C prior to their use. All drugs and investigational agents were tested over a range starting from a high concentration at or near the clinical Cmax and decreasing in half-log increments. If the clinical Cmax for an agent had not been determined, the highest concentration tested was 10 microM.
Cell Culture. All cells were maintained in an incubator at 37 degrees C and 5% CO2 with 95% humidity. The PDC lines were cultured according to standard operating procedures established by the NCI PDMR (https://pdmr.cancer.gov/sops/default.htm). All PDCs were thawed and cultured in Matrigel-coated flasks prepared with a working solution of 1X Ham's F-12 nutrient mix, without supplementation (Invitrogen, Waltham, MA, cat. 11765054), 100 U/mL penicillin-streptomycin (Invitrogen, cat. 15140122), and 2.5% Matrigel (Corning Inc., Corning, NY, cat. 354248) for the first three passages. The 354836-022-R-J1-PDC, 475296-252-R-J1-PDC, and 997726-040-R-J2-PDC lines were cultured in 6A media, which includes advanced DMEM/F-12 (Thermo Fisher Scientific, cat. 12634028), 10 mM HEPES (Thermo Fisher Scientific, cat. 15630080), 1X GlutaMAX supplement (Thermo Fisher Scientific, cat. 35050061), 0.1 mg/mL primocin (InvivoGen, San Diego, CA, cat. ant-pm-2), 10% defined fetal bovine serum, heat inactivated (HyClone Laboratories Inc., Logan, UT, cat. SH30070.03HI), 50% L-WRN conditioned media (ATCC, cat. CRL-3276), 1.25 mM N-Acetyl-L-cysteine (Sigma-Aldrich, cat. A9165), 10 mM nicotinamide (Sigma-Aldrich, cat. N0636), 1X B-27 supplement (Thermo Fisher Scientific, cat. 17504044), 1X N-2 supplement (Thermo Fisher Scientific, cat. 17502048), and 10 microM Y-27632 dihydrochloride (Tocris Bioscience, Bristol, United Kingdom, cat. 1254). The 624824-186-R-J2-PDC line was cultured in 6C/Colon 1B media, which includes all 6A media components plus 50 ng/mL human EGF recombinant protein (Thermo Fisher Scientific, cat. PHG0311). […]
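Also: spheroids exposed to agents for 7 days before read-out.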
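For viability, T/C in this document: luminescence used as surrogate of cell viability.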

Which results are given for `Cn1ncc(Cl)c1-c1cc(C(=O)NC(CN)Cc2cccc(F)c2)sc1Cl` (configuration not stated) + Cc1nc(NC(=O)N2CCCC2C(N)=O)sc1-c1ccnc(C(C)(C)C(F)(F)F)c1?
IC50 (second compound 0.0316 µM): > 10 µM; IC50 (second compound 0.1 µM): 7.44 µM; IC50 (second compound 0.316 µM): > 10 µM; IC50 (second compound 1 µM): 4.6 µM; IC50 (second compound 3.16 µM): 5.42 µM; IC50 (second compound 10 µM): 0.366 µM; viability, T/C (second compound 0.0316 µM, first compound 0.0316 µM): 108%; viability, T/C (second compound 0.0316 µM, first compound 0.1 µM): 79%; viability, T/C (second compound 0.0316 µM, first compound 0.316 µM): 77.8%; viability, T/C (second compound 0.0316 µM, first compound 1 µM): 72.3%; viability, T/C (second compound 0.0316 µM, first compound 3.16 µM): 61.3%; viability, T/C (second compound 0.0316 µM, first compound 10 µM): 71.4%; viability, T/C (second compound 0.1 µM, first compound 0.0316 µM): 75.6%; viability, T/C (second compound 0.1 µM, first compound 0.1 µM): 91%; viability, T/C (second compound 0.1 µM, first compound 0.316 µM): 76.5%; viability, T/C (second compound 0.1 µM, first compound 1 µM): 82.6%; viability, T/C (second compound 0.1 µM, first compound 3.16 µM): 75.2%; viability, T/C (second compound 0.1 µM, first compound 10 µM): 41.1%; viability, T/C (second compound 0.316 µM, first compound 0.0316 µM): 72.8%; viability, T/C (second compound 0.316 µM, first compound 0.1 µM): 82%; viability, T/C (second compound 0.316 µM, first compound 0.316 µM): 78.1%; viability, T/C (second compound 0.316 µM, first compound 1 µM): 89.6%; viability, T/C (second compound 0.316 µM, first compound 3.16 µM): 61.6%; viability, T/C (second compound 0.316 µM, first compound 10 µM): 59.9%; viability, T/C (second compound 1 µM, first compound 0.0316 µM): 62.2%; viability, T/C (second compound 1 µM, first compound 0.1 µM): 83.4%; viability, T/C (second compound 1 µM, first compound 0.316 µM): 60.5%; viability, T/C (second compound 1 µM, first compound 1 µM): 65%; viability, T/C (second compound 1 µM, first compound 3.16 µM): 55.3%; viability, T/C (second compound 1 µM, first compound 10 µM): 38.9%; viability, T/C (second compound 3.16 µM, first compound 0.0316 µM): 52.2%; viability, T/C (second compound 3.16 µM, first compound 0.1 µM): 55.9%; viability, T/C (second compound 3.16 µM, first compound 0.316 µM): 53.2%; viability, T/C (second compound 3.16 µM, first compound 1 µM): 61.3%; viability, T/C (second compound 3.16 µM, first compound 3.16 µM): 52%; viability, T/C (second compound 3.16 µM, first compound 10 µM): 42.4%; viability, T/C (second compound 10 µM, first compound 0.0316 µM): 60.4%; viability, T/C (second compound 10 µM, first compound 0.1 µM): 55.6%; viability, T/C (second compound 10 µM, first compound 0.316 µM): 51.2%; viability, T/C (second compound 10 µM, first compound 1 µM): 40.8%; viability, T/C (second compound 10 µM, first compound 3.16 µM): 46.7%; viability, T/C (second compound 10 µM, first compound 10 µM): 32.8%
